Results from publication PMC3388095, “Fluorophore Labeled Kinase Detects Ligands That Bind within the MAPK Insert of p38α Kinase” (PLoS ONE, 2012).

Target: T1, p38α MAPK insert (Homo sapiens, UniProt Q16539, C119S/C162S/S252C)
T1 construct: His-tag with PreScission Protease cleavage site (N); made in house; host or cells: E. coli BL21(DE3) Codon+RIL
Test: FLiK direct binding assay, acrylodan-labeled p38α (S252C) MAPK insert / lipid binding site
Details: binding to p38α MAPK insert
Method: The human p38α kinase construct containing the mutations required for specific labeling (C119S/C162S/S252C) as well as wild type p38α were cloned into a pOPINF vector and transformed as an N-terminal His-tag construct with a PreScission Protease cleavage site into BL21(DE3) Codon+RIL E. coli. Protein expression, purification, fluorophore labeling and verification of mono-labeling of the kinase were performed essentially as described previously. Labeling of the mutant p38α protein with thiol-reactive acrylodan was carried out by adding a 1.5∶1 molar excess of the fluorophore (dissolved in DMSO) to the purified protein in 50 mM Hepes Buffer (pH 7.0). The mixture was allowed to react in the dark overnight at 4°C. Unreacted acrylodan was subsequently removed by three cycles of buffer exchange into FLiK Measurement Buffer (50 mM Hepes Buffer, pH 7.4+200 mM NaCl) using a 10k-MWCO Centricon. The protein was concentrated to ∼200 μM, aliquoted and frozen at −80°C. Mono-labeling of the protein was verified by ESI-MS as described previously, [24].
Characterization of the fluorescence response of MAP insert-labeled p38α was carried out as described previously for p38α labeled on the activation loop. […] Briefly, a polystyrene cuvette containing a suspension of 50 nM acrylodan-labeled p38α in FLiK Buffer was excited at 386 nm and emission spectra were measured in the absence and presence of increasing concentrations of 1b. The compound was dissolved in 100% DMSO and delivered in sequential small doses to a single sample. […] Ratiometric fluorescence readouts are advantageous in that they provide an internal correction for small errors in sample volume which can affect signal intensity. All measurements of the cuvettes were made with a JASCO FP-6500 fluorescence spectrophotometer (JASCO GmbH, Germany).
The assay was adapted to high-throughput screening formats which enabled KD values to be determined in black small volume assay plates. Briefly, a dilution series of each compound was first prepared in 100% DMSO at 20X the desired final concentration and 1 μL was transferred to the assay plate. Compounds were then mixed with 19 µL of FLiK Buffer (supplemented with 0.01% Triton X-100) containing acrylodan-labeled p38α (100 nM). The final concentration of compound in the dilution series ranged from 0–50 μM (5% v/v DMSO final). Plates were covered with an adhesive aluminum foil and incubated for 30 min at RT prior to measurement of emission intensities at 470 and 520 nm using a Tecan Safire^2 plate reader. […] Binding curves were plotted using the ratio R = I520/I470 to determine the KD.

[1] = ratiometric acrylodan emission, each concentration in triplicate

T1 sequence (Q16539 whole entry C119S/C162S/S252C): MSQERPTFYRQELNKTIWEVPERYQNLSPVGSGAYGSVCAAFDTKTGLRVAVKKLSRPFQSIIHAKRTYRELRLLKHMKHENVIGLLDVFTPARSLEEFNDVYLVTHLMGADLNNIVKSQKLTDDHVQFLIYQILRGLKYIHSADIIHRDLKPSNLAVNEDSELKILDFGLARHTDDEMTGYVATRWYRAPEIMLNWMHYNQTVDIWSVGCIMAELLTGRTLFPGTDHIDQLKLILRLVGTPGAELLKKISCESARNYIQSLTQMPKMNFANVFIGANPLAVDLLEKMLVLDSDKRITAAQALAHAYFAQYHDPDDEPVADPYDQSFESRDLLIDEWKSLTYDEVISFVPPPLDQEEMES

Row | SMILES | Kd [1] [nM] | Kd (value as printed in text) [nM]
1 | O=[N+]([O-])c1ccc2c(NC3CC3)nc(-c3ccccc3)nc2c1 [1a, N-Cyclopropyl-7-nitro-2-phenyl-4-quinazolinamine] | 1900 ± 200 | 
2 | O=[N+]([O-])c1ccc2c(NC3CC3)nc(-c3ccncc3)nc2c1 [5a, N-Cyclopropyl-7-nitro-2-(4-pyridinyl)-4-quinazolinamine] | > 10000 | 
3 | Nc1ccc2c(NC3CC3)nc(-c3ccncc3)nc2c1 [5b, N^4-Cyclopropyl-2-(4-pyridinyl)-4,7-quinazolinediamine] | > 50000 | 
4 | O=[N+]([O-])c1ccc2c(NCC3CC3)nc(-c3ccccc3)nc2c1 [6a, N-(Cyclopropylmethyl)-7-nitro-2-phenyl-4-quinazolinamine] | 460 ± 210 | 
5 | Nc1ccc2c(NCC3CC3)nc(-c3ccccc3)nc2c1 [6b, N^4-(Cyclopropylmethyl)-2-phenyl-4,7-quinazolinediamine] | 4700 ± 700 | 
6 | O=[N+]([O-])c1ccc2c(NCc3ccccc3)nc(-c3ccccc3)nc2c1 [7a, N-Benzyl-7-nitro-2-phenyl-4-quinazolinamine] | 320 ± 90 | 
7 | Nc1ccc2c(NCc3ccccc3)nc(-c3ccccc3)nc2c1 [7b, N^4-Benzyl-2-phenyl-4,7-quinazolinediamine] | 2200 ± 800 | 
8 | O=[N+]([O-])c1ccc2c(NCc3ccccc3)nc(-c3ccncc3)nc2c1 [7c, N-Benzyl-7-nitro-2-(4-pyridinyl)-4-quinazolinamine] | 810 ± 100 | 

More lines, now with the values ahead:

Row | Kd [1] [nM] | Kd (value as printed in text) [nM] | SMILES
9 |  | 280 | O=[N+]([O-])c1ccc2c(NCCc3ccccc3)nc(-c3ccccc3)nc2c1 [8a, 7-Nitro-2-phenyl-N-(2-phenylethyl)-4-quinazolinamine]
10 | 1200 ± 300 |  | Nc1ccc2c(NCCc3ccccc3)nc(-c3ccccc3)nc2c1 [8b, 2-Phenyl-N^4-(2-phenylethyl)-4,7-quinazolinediamine]
11 | 1800 ± 300 |  | O=[N+]([O-])c1ccc2c(NCCc3ccccc3)nc(-c3ccncc3)nc2c1 [8c, 7-Nitro-N-(2-phenylethyl)-2-(4-pyridinyl)-4-quinazolinamine]
